Results: patent US9937192B2, “Combination therapy to treat mycobacterium diseases” (priority 2012, dated 2018)
Converted amounts (≈) assume the structure as drawn. Where a name gives a salt, the structure may show the parent alone. Read-outs that look alike come from different tables or passages of the source.

How the values were obtained:
[1] = system: Mycobacterium tuberculosis; assay: Mycobacterium tuberculosis Serum Shift MIC Assay (Protocol 5); format: cell-based; details: ATCC 35801 / ERDMAN
Source text: Protocol 5. Protocol for Mycobacterium tuberculosis Serum Shift MIC Assay
Media Prep: • 1. […] It was important that all media and supplements were sterilized prior to MICs. • 2. Prepared all media below and inoculated as described in next section. Tested all compounds against Mtb using each media. • a. […] 7H9+0.2% glycerol+2 g/L dextrose+0.85 g/L NaCl+0.003 g/L catalase (0% FBS). • c. 2×7H9+0.2% glycerol+2 g/L dextrose+0.85 g/L NaCl+0.003 g/L catalase combined with equal volume Fetal Bovine Serum (50% FBS).
Inoculum Prep: • 1. Using BBL Prompt, picked 5-10 well-separated colonies and inoculated 1 ml sterile saline that came in the kit. Typically plates were two to three weeks of age when used for this assay due to the slow growth of this organism in culture. • 2. Vortexed well, then sonicated in water bath for 30 sec providing a suspension of ˜10^8 cells/ml. Actual density could be confirmed by plating out dilutions of this suspension. • 3. Prepared inoculum in each of the three media formulations by diluting the BBL Prompt suspension 1/200 (for example: transferred 0.2 ml of cells to 40 ml of medium) to obtain a starting cell density of […]. • 4. Used 100 μl cells (˜5×10^4 cells) to inoculate each microtiter well containing 1 μl of drug in DMSO (see below).
Drug Dilutions, Inoculation, MIC Determination: • 1. Control drug stocks Isoniazid and Novobiocin were prepared at 10 mM in 100% DMSO while Ciprofloxacin and Rifampin were prepared at 1 mM in 50% DMSO and 100% DMSO, respectively. Prepared dilutions—dispensed 100 μL of the stock solution into the first column of a 96-well plate. Prepared 11-step, 2-fold serial dilutions across the row for each compound by transferring 50 μl from column 1 into 50 μl of DMSO in column 2. Continued to transfer 50 μL from column 2 through column 11 while mixing and changing tips at each column. Left column 12 with DMSO only as a control. • 2. Transferred 1 μl of each dilution into an empty microtiter well prior to the addition of 100 μl of cells. The starting concentration of Isoniazid and Novobiocin was 100 μM after the dilution into medium+cells; the starting concentration of Ciprofloxacin and Rifampin was 10 μM after the dilution into medium+cells. Compound concentrations decreased in 2× steps moving across the rows of the microtiter plate. […] Measured background fluorescence at Excitation 492 nm, Emission 595 nm and returned the plate to the incubator for another 24 hours.
After 24 hours the fluorescence of each well was measured at Excitation 492 nm, Emission 595 nm.
Percent inhibition by a given compound was calculated as follows: Percent inhibition=100−([well fluorescence-average background fluorescence]/[DMSO control−average background fluorescence]×100). […]

[2] = Seven-Day Oral (Gavage) Toxicity and Toxicokinetics Study in Rats; format: in vivo, Crl:CD(SD) rats; details: male rats
Source text: Seven-Day Oral (Gavage) Toxicity and Toxicokinetics Study in Rats
Crl:CD(SD) rats were obtained from Charles River Laboratories of Stone Ridge, N.Y. The animals were laboratory bred and experimentally naïve. Rats were chosen because they are a species that is commonly used for nonclinical toxicity evaluations.
Animals received the test article or vehicle by oral gavage for 7 consecutive days and were terminated the day following completion of dosing. The first day of dosing was designated as Day 1 of the study. The animals were evaluated for changes in clinical signs, body weight, and other parameters as described below.
The vehicle and test article were administered by oral gavage once daily for 7 consecutive days at a dose volume of 10 mL/kg body weight for Group A and Groups B-D, respectively. The test article and vehicle were administered by oral gavage twice daily, approximately 8 hours apart, for 7 consecutive days at a dose volume of 10 mL/kg body weight for Group E and Group F, respectively. The actual volume administered to each animal was calculated and adjusted based on the most recent body weight of each animal.
During the treatment period, daily cageside observations were made and recorded predose and postdose (following the first dose only). The postdosing observations made during treatment occurred at the following times based on Cmax/Tmax for the two compounds from previous studies:
Prior to start of dosing, body weights were measured for randomization on Day 1. During the treatment, body weights were measured on Day 1 and Day 7. In addition, fasted body weights were measured prior to necropsy for calculation of organ/body weight ratios.
Throughout the study, food consumption was measured daily starting 3 days prior to start of dosing.
Blood samples for evaluation of hematology, coagulation, and serum chemistry parameters were collected from all animals from the retro-orbital plexus (under CO2/O2 anesthesia, for the main study animals) or jugular vein cannula (for the toxicokinetic animals) prior to necropsy. Due to residual heparin used to keep the cannulas patent for the toxicokinetic animals, coagulation samples from these rats, were not able to be analyzed. The animals were fasted overnight prior to blood collection. On the day of blood collection for clinical pathology analyses, the animals were not necropsied until after the blood was collected and the samples judged to be acceptable by the clinical pathology group.
On the 1st and 7th day of dosing, blood samples (approximately 0.5 mL/sample) were collected from the jugular vein cannula for all toxicokinetic animals at the timepoints listed below into K3EDTA-containing tubes. […] Prior to each collection, a small sample of blood (with heparin blocking solution) was removed from the cannula and discarded. A new syringe was placed on the cannula, and the protocol-required sample was taken. The syringe with the blood sample was removed, and a new syringe with saline attached to the cannula. Blood volume was replaced with an equal volume of saline and then blocking solution placed in the cannula. Each animal was returned to its cage until the next collection timepoint.
For all animals euthanized at scheduled necropsies, the kidneys, liver, and prostate gland were weighed. Following weighing, an approximate 1 gram sample of liver and kidney was weighed, transferred to Precellys 7 mL CK28 Tissue Homogenizing tubes (Cat. No. 0904-01), snap-frozen, and analyzed.
For all animals scheduled for the terminal necropsy, the kidneys, liver, and prostate were embedded in paraffin, sectioned and stained with hematoxylin and eosin for further examination by light microscopy. For Groups A, D, E, and F only, the remaining tissues listed above were embedded in paraffin, sectioned and stained with hematoxylin and eosin for further examination by light microscopy. […]

M. tuberculosis H37Rv [3] = assay: Monotherapy against established TB in mice (dose-ranging activity study); format: in vivo; details: for Log cfu (lung) / Log Reduction: BALB/c mice, M. tuberculosis H37Rv; for Log cfu (lung): 4 weeks of treatment; for Log Reduction: 4 weeks, vs untreated control
[4] = Rat IV Study (pharmacokinetics); details: male Sprague Dawley rats, plasma analyte = label
M. tuberculosis = assay: microbe, parasite or virus in culture; format: cell-based; details: for MIC: Mycobacterium tuberculosis, H37RA, read-out: MIC, Broth
[5] = system: intracellular M. tuberculosis in THP-1 cells; assay: microbe, parasite or virus in culture; format: cell-based; details: Mycobacterium tuberculosis, H37RA; for MIC: read-out: MIC, Macrophage Cells
M. tuberculosis H37Rv [6] = assay: Minimum bactericidal concentration (MBC) assay; format: cell-based; details: 0.125 ug/mL
[7] = system: Non-Replicating (NRP) M. tuberculosis H37Ra; assay: Non-replicating (NRP) M. tuberculosis H37Ra (luciferase) culture assay; format: cell-based; details: Mycobacterium tuberculosis, 336 h, read on day 14
[8] = 100 mg/kg daily 5 days per week
[9] = Compound W dosed IV bolus 1 mg/kg in D5W
[10] = Compound W dosed IV bolus 5 mg/kg in D5W

Compound: CCNC(=O)Nc1nc2cc(-c3cnc(C(C)(C)O)nc3)cc([C@H]3CCCO3)c2[nH]1 [Compound 13, methanesulfonic acid salt of 1-ethyl-3-[5-[2-(1-hydroxy-1-methyl-ethyl)pyrimidin-5-yl]-7-[(2R)-tetrahydrofuran-2-yl]-1H-benzimidazol-2-yl]urea]
- MIC ([1]; M. tuberculosis Erdman ATCC 35801, read-out: MIC): 0.045 µg/mL
- MIC ([1]; M. tuberculosis Erdman ATCC 35801 with Mouse Serum): 2 µg/mL
- dose levels at which no adverse toxicity was demonstrated ([2]; 7 days oral gavage): up to 200 mg/kg/day
- adverse observations or effects on mean body weight ([2]; 7 days oral gavage, all dose groups): No adverse observations or effects on mean body weight
- histopathological findings ([2]; any dose regimen): No test article-related histopathological findings
- NOEL (No-Observable-Effect-Level) ([2]; once a day for 7 days orally via gavage): 200 mg/kg
- Mean food consumption ([2]; once daily 100 or 200 mg/kg, not considered adverse): reduced
- exposures for different dosage levels ([2]; toxicokinetics): dose related

Compound: CCNC(=O)Nc1nc2cc(-c3cnc(C(C)(C)OP(=O)([O-])[O-])nc3)c(F)c([C@H]3CCCO3)c2[nH]1.[Na+].[Na+] [Compound W, disodium (R)-2-(5-(2-(3-ethylureido)-6-fluoro-7-(tetrahydrofuran-2-yl)-1H-benzo[d]imidazol-5-yl)pyrimidin-2-yl)propan-2-yl phosphate]
- Log cfu (lung) (M. tuberculosis H37Rv [3]; 10 mg/kg daily 5 days per week): 6.38
- Log Reduction (M. tuberculosis H37Rv [3]; 10 mg/kg daily 5 days per week): 0
- Log cfu (lung) (M. tuberculosis H37Rv [3]; 30 mg/kg daily 5 days per week): 5.51
- Log Reduction (M. tuberculosis H37Rv [3]; 30 mg/kg daily 5 days per week): 0.49
- Log cfu (lung) (M. tuberculosis H37Rv [3]; [8]): 5.35
- Log Reduction (M. tuberculosis H37Rv [3]; [8]): 0.65
- activity compared with no treatment (M. tuberculosis H37Rv [3]; at 30 and 100 mg/kg, p<0.01 by one-way ANOVA with Dunnett's post-test): superior to no treatment
- AUCextrap [4, 9]: 419 ng·h/mL
- Cl_obs [4, 9]: 46.7 mL/min/kg
- Vss_obs [4, 9]: 0.38 L/kg
- t½ [4, 9]: 0.9 h
- AUCextrap [4, 10]: 1120 ng·h/mL
- Cl_obs [4, 10]: 84.6 mL/min/kg
- Vss_obs [4, 10]: 5.8 L/kg
- t½ [4, 10]: 7.2 h

Compound: CC[C@@H](CO)NCCN[C@@H](CC)CO [Ethambutol]
- MIC (M. tuberculosis): 2.55 µg/mL (≈ 12.5 µM)
- MIC [5]: 1.26 µg/mL (≈ 6.17 µM)

Compound: NNC(=O)c1ccncc1 [Isoniazid, isonicotinohydrazide, reference compound]
- Log cfu (lung) (M. tuberculosis H37Rv [3]; 10 mg/kg daily 5 days per week): 5.01
- Log Reduction (M. tuberculosis H37Rv [3]; 10 mg/kg daily 5 days per week): 0.99
- MIC (M. tuberculosis): 0.21 µg/mL (≈ 1.53 µM)
- Log cfu (M. tuberculosis H37Rv [6]): 4.28
- Log Reduction (M. tuberculosis H37Rv [6]; vs untreated control): 1.85
- MIC [5]: 0.012 µg/mL (≈ 0.0875 µM)
- IC50 [7]: > 50 µg/mL

Compound: CC(=O)NC[C@H]1CN(c2ccc(N3CCOCC3)c(F)c2)C(=O)O1 [Linezolid]
- MIC (M. tuberculosis): 0.53 µg/mL (≈ 1.57 µM)
- MIC [5]: 0.37 µg/mL (≈ 1.1 µM)

Compound: CO[C@@H]1[C@@H](OC(N)=O)[C@@H](O)[C@H](Oc2ccc3c(O)c(NC(=O)c4ccc(O)c(CC=C(C)C)c4)c(=O)oc3c2C)OC1(C)C [Novobiocin]
- Erdman (MIC) (M. tuberculosis): 61 µg/mL
- IC50 ([5]; THP-1, 120 h, read-out: Mtb H37Ra in THP1 Cells (IC50)): 2.1 µg/mL (≈ 3.43 µM)

Compound: CO[C@H]1/C=C/O[C@@]2(C)Oc3c(C)c(O)c4c(O)c(c(/C=N/N5CCN(C)CC5)c(O)c4c3C2=O)NC(=O)/C(C)=C\C=C\[C@H](C)C(O)[C@@H](C)[C@@H](O)[C@@H](C)[C@H](OC(C)=O)[C@@H]1C (stereo partly drawn) [Rifampin, (7S,9E,11S,12R,13S,14R,15R,16R,17S,18S,19E,21Z)-2,15,17,27,29-pentahydroxy-11-methoxy-3,7,12,14,16,18,22-heptamethyl-26-{(E)-[(4-methylpiperazin-1-yl)imino]methyl}-6,23-dioxo-8,30-dioxa-24-azatetracyclo[23.3.1.1^4.7.0^5.28]triaconta-1(28),2,4,9,19,21,25(29),26-octaen-13-yl acetate]
- Log cfu (lung) (M. tuberculosis H37Rv [3]; 10 mg/kg daily 5 days per week): 4.38
- Log Reduction (M. tuberculosis H37Rv [3]; 10 mg/kg daily 5 days per week): 1.62
- MIC (M. tuberculosis): 0.03 µg/mL
- MIC [5]: 0.008 µg/mL
- IC50 [7]: < 0.05 µg/mL
